Literature values in patent US12157728B2, “Targeting of endoplasmic reticulum dysfunction and protein folding stress to treat neurological conditions” (ALS Therapy Development Institute, priority 2018, dated 2024).
Structures can show the parent of a compound that is named as a salt.

Legend:
[1] = system: GADD34/protein phosphatase 1 (PP1)
[2] = system: ER stress-mediated apoptosis; settings: induced by tunicamycin
[3] = not given; remark: listed apart in the source
[4] = in vivo
[5] = system: β-amyloid-induced neuronal death

Row | solubility in 0.9% saline and aqueous buffers (0.9% saline and aqueous buffers at or below pH 2.0) | solubility in water (water) | Compound | solubility in aqueous buffers (aqueous buffers at or above pH 3.0) | motor neuron degeneration (SOD1 mice) | survival (SOD1 mice) | eIF2α dephosphorylation via GADD34/PP1 complex [1] | ER stress-mediated apoptosis [2] | solubility in aqueous solutions [3] | clearance [4] | β-amyloid-induced neuronal death and microglial activation [5] | cell death induced by α-synuclein (PC12 cells)
1 | soluble | > 10% | CCCCCCCCc1ccc(CCC(N)(CO)CO)cc1 [Fingolimod hydrochloride] | very slightly soluble or practically insoluble | – | – | – | – | – | – | – | –
2 | – | – | O=C(/C=C/c1ccccc1)NC(NC(=S)Nc1cccc2cccnc12)C(Cl)(Cl)Cl (centres unmarked) [Salubrinal, N-(2,2,2-trichloro-1-(3-(quinolin-8-yl)thioureido)ethyl)cinnamamide] | – | slowed motor neuron degeneration | extended survival | prevent eIF2α dephosphorylation | inhibit ER stress-mediated apoptosis | low solubility | rapid clearance | attenuate β-amyloid-induced neuronal death and microglial activation | protected PC12 cells from cell death
